Reference: ChEMBL document CHEMBL1201862, “PubChem BioAssay data set” (2004)
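Grown in 96-well plates, cells were treated for 48 hours with each compound at five concentrations. Insufficient inhibition: endpoint recorded as highest concentration tested. GI50 is the concentration that inhibits growth by half.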 Activity calls are given as the source filed them. Cut-off read from the data, not from the text of the source: active = GI50 up to about 1.1 µM and inactive = higher.

Key:
Test in all cases: NCI anticancer screen, dose series, 48 h
ACHN = system: ACHN
SK-MEL-28 = system: SK-MEL-28
PC-3 = system: PC-3
MDA-MB-435 = system: MDA-MB-435
OVCAR-8 = system: OVCAR-8
NCI/ADR-RES = system: NCI/ADR-RES
SW-620 = system: SW-620
OVCAR-3 = system: OVCAR-3
HOP-92 = system: HOP-92
TK-10 = system: TK-10
SK-MEL-5 = system: SK-MEL-5
MOLT-4 = system: MOLT-4
HL-60 = system: HL-60
NCI-H522 = system: NCI-H522
NCI-H226 = system: NCI-H226
SNB-75 = system: SNB-75
SF-539 = system: SF-539
SK-OV-3 = system: SK-OV-3
BT-549 = system: BT-549
HCC 2998 = system: HCC 2998
COLO 205 = system: COLO 205
M14 = system: M14
MDA-MB-231 = system: MDA-MB-231
Malme-3M = system: Malme-3M
A549 = system: A549
A498 = system: A498
SN12C = system: SN12C
SF-268 = system: SF-268
RXF 393 = system: RXF 393
MDA-N = system: MDA-N
CCRF-CEM = system: CCRF-CEM
IGROV-1 = system: IGROV-1
Hs-578T = system: Hs-578T
SR = system: SR
UO-31 = system: UO-31
HCT-116 = system: HCT-116
EKVX = system: EKVX
OVCAR-4 = system: OVCAR-4
U-251 = system: U-251
CAKI-1 = system: CAKI-1
K562 = system: K562
T47D = system: T47D
786-0 = system: 786-0
SK-MEL-2 = system: SK-MEL-2
UACC-257 = system: UACC-257
NCI-H460 = system: NCI-H460
NCI-H23 = system: NCI-H23
SNB-19 = system: SNB-19
HCT-15 = system: HCT-15
OVCAR-5 = system: OVCAR-5
RPMI-8226 = system: RPMI-8226
UACC-62 = system: UACC-62
DU-145 = system: DU-145
HOP-62 = system: HOP-62
MCF7 = system: MCF7
HT-29 = system: HT-29
SF-295 = system: SF-295
LOX IMVI = system: LOX IMVI
KM12 = system: KM12

`c1ccc(C2=NCCN2)c(C2=NCCN2)c1` was tested, and the GI50 (ACHN) was > 100 µM (inactive), the GI50 (SK-MEL-28) was > 100 µM (inactive) and the GI50 (PC-3) was > 100 µM (inactive). The GI50 (MDA-MB-435) was > 100 µM (inactive), the GI50 (OVCAR-8) was > 100 µM (inactive) and the GI50 (NCI/ADR-RES) was > 100 µM (inactive). The GI50 (SW-620) was > 100 µM (inactive), the GI50 (OVCAR-3) was > 100 µM (inactive) and the GI50 (HOP-92) was > 100 µM (inactive). For the same compound, the GI50 (TK-10) was > 100 µM (inactive), the GI50 (SK-MEL-5) was > 100 µM (inactive) and the GI50 (MOLT-4) was > 100 µM (inactive). The GI50 (HL-60) was > 100 µM (inactive), the GI50 (NCI-H522) was > 100 µM (inactive) and the GI50 (NCI-H226) was > 100 µM (inactive). The GI50 (SNB-75) was > 100 µM (inactive), the GI50 (SF-539) was > 100 µM (inactive) and the GI50 (SK-OV-3) was > 100 µM (inactive). For the same compound, the GI50 (BT-549) was > 100 µM (inactive), the GI50 (HCC 2998) was 57.3 µM (inactive) and the GI50 (COLO 205) was > 100 µM (inactive). For the same compound, the GI50 (M14) was > 100 µM (inactive), the GI50 (MDA-MB-231) was > 100 µM (inactive) and the GI50 (Malme-3M) was > 100 µM (inactive). The GI50 (A549) was > 100 µM (inactive), the GI50 (A498) was > 100 µM (inactive) and the GI50 (SN12C) was > 100 µM (inactive). The GI50 (SF-268) was > 100 µM (inactive), the GI50 (RXF 393) was > 100 µM (inactive) and the GI50 (MDA-N) was > 100 µM (inactive). For the same compound, the GI50 (CCRF-CEM) was > 100 µM (inactive), the GI50 (IGROV-1) was > 100 µM (inactive) and the GI50 (Hs-578T) was > 100 µM (inactive). The GI50 (SR) was > 100 µM (inactive), the GI50 (UO-31) was > 100 µM (inactive) and the GI50 (HCT-116) was > 100 µM (inactive). The GI50 (EKVX) was > 100 µM (inactive), the GI50 (OVCAR-4) was > 100 µM (inactive) and the GI50 (U-251) was > 100 µM (inactive). For the same compound, the GI50 (CAKI-1) was > 100 µM (inactive), the GI50 (K562) was > 100 µM (inactive) and the GI50 (T47D) was > 100 µM (inactive). For the same compound, the GI50 (786-0) was > 100 µM (inactive), the GI50 (SK-MEL-2) was > 100 µM (inactive) and the GI50 (UACC-257) was > 100 µM (inactive). For the same compound, the GI50 (NCI-H460) was > 100 µM (inactive), the GI50 (NCI-H23) was > 100 µM (inactive) and the GI50 (SNB-19) was > 100 µM (inactive). The GI50 (HCT-15) was 44.1 µM, the GI50 (OVCAR-5) was > 100 µM (inactive) and the GI50 (RPMI-8226) was > 100 µM (inactive). For the same compound, the GI50 (UACC-62) was > 100 µM (inactive), the GI50 (DU-145) was > 100 µM (inactive) and the GI50 (HOP-62) was > 100 µM (inactive). For the same compound, the GI50 (MCF7) was > 100 µM (inactive), the GI50 (HT-29) was > 100 µM (inactive) and the GI50 (SF-295) was > 100 µM (inactive). The GI50 (LOX IMVI) was > 100 µM (inactive) and the GI50 (KM12) was > 100 µM (inactive).

`C(#CC1(Nc2ccccc2)CCN(Cc2ccccc2)CC1)C1(Nc2ccccc2)CCN(Cc2ccccc2)CC1` was tested, and the GI50 (ACHN) was 39.4 µM (inactive), the GI50 (SK-MEL-28) was 4.8 µM (inactive) and the GI50 (PC-3) was 15.1 µM (inactive). The GI50 (MDA-MB-435) was 25.8 µM (inactive), the GI50 (OVCAR-8) was 21.6 µM (inactive) and the GI50 (NCI/ADR-RES) was 34.7 µM (inactive). The GI50 (SW-620) was 11.2 µM (inactive), the GI50 (OVCAR-3) was 37.8 µM (inactive) and the GI50 (HOP-92) was 4.95 µM (inactive). For the same compound, the GI50 (TK-10) was 13.2 µM (inactive), the GI50 (SK-MEL-5) was 3.88 µM (inactive) and the GI50 (MOLT-4) was 4.17 µM (inactive). For the same compound, the GI50 (HL-60) was 1.56 µM (inactive), the GI50 (NCI-H522) was 24.8 µM (inactive) and the GI50 (NCI-H226) was 26.7 µM (inactive). For the same compound, the GI50 (SNB-75) was 10 µM (inactive), the GI50 (SF-539) was 5.5 µM (inactive) and the GI50 (SK-OV-3) was 5.01 µM (inactive). For the same compound, the GI50 (BT-549) was 34.6 µM (inactive), the GI50 (HCC 2998) was 0.818 µM (active) and the GI50 (COLO 205) was 1.31 µM (inactive). The GI50 (M14) was 11.2 µM (inactive), the GI50 (MDA-MB-231) was 16.3 µM (inactive) and the GI50 (Malme-3M) was 3.17 µM (inactive). For the same compound, the GI50 (A549) was 23.6 µM (inactive), the GI50 (A498) was 30.1 µM (inactive) and the GI50 (SN12C) was 24.2 µM (inactive). For the same compound, the GI50 (SF-268) was 29.1 µM (inactive), the GI50 (RXF 393) was 12.5 µM (inactive) and the GI50 (MDA-N) was 14.5 µM (inactive). The GI50 (CCRF-CEM) was 6.27 µM (inactive), the GI50 (IGROV-1) was 22.9 µM (inactive) and the GI50 (Hs-578T) was 10 µM (inactive). For the same compound, the GI50 (SR) was 3.15 µM (inactive), the GI50 (UO-31) was 15.5 µM (inactive) and the GI50 (HCT-116) was 19.4 µM (inactive). For the same compound, the GI50 (EKVX) was 40.6 µM (inactive), the GI50 (OVCAR-4) was 19.3 µM (inactive) and the GI50 (U-251) was 19.9 µM (inactive). For the same compound, the GI50 (CAKI-1) was 24.3 µM (inactive), the GI50 (K562) was 1.62 µM (inactive) and the GI50 (T47D) was 9.31 µM (inactive). The GI50 (786-0) was 17.3 µM (inactive), the GI50 (SK-MEL-2) was 10.5 µM (inactive) and the GI50 (UACC-257) was 2.08 µM (inactive). The GI50 (NCI-H460) was 16.3 µM (inactive), the GI50 (NCI-H23) was 37.8 µM (inactive) and the GI50 (SNB-19) was 23.8 µM (inactive). For the same compound, the GI50 (HCT-15) was 22.2 µM, the GI50 (OVCAR-5) was 53.3 µM (inactive) and the GI50 (RPMI-8226) was 1.18 µM (inactive). The GI50 (UACC-62) was 13.2 µM (inactive), the GI50 (DU-145) was 46.9 µM (inactive) and the GI50 (HOP-62) was 16.7 µM (inactive). The GI50 (MCF7) was 31.5 µM (inactive), the GI50 (HT-29) was 4.72 µM (inactive) and the GI50 (SF-295) was 22.3 µM (inactive). For the same compound, the GI50 (LOX IMVI) was 5.14 µM (inactive) and the GI50 (KM12) was 35.3 µM (inactive).
